Measured values reported in ChEMBL document CHEMBL1201862, “PubChem BioAssay data set” (2004).
Active and inactive are the calls of the source. No stated cut-off is given here; in the data, actives have a measured IC50 and inactives only a lower limit.

What was measured:
Assay type in all cases: functional
[1] = biological target: T1, Sentrin-specific protease 7 (Homo sapiens, UniProt Q9BQF6);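 further: Luminescence-based dose-response confirmation of ultra-high-throughput screening hits, measuring inhibition of SENP7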
T1 sequence (Q9BQF6 whole entry): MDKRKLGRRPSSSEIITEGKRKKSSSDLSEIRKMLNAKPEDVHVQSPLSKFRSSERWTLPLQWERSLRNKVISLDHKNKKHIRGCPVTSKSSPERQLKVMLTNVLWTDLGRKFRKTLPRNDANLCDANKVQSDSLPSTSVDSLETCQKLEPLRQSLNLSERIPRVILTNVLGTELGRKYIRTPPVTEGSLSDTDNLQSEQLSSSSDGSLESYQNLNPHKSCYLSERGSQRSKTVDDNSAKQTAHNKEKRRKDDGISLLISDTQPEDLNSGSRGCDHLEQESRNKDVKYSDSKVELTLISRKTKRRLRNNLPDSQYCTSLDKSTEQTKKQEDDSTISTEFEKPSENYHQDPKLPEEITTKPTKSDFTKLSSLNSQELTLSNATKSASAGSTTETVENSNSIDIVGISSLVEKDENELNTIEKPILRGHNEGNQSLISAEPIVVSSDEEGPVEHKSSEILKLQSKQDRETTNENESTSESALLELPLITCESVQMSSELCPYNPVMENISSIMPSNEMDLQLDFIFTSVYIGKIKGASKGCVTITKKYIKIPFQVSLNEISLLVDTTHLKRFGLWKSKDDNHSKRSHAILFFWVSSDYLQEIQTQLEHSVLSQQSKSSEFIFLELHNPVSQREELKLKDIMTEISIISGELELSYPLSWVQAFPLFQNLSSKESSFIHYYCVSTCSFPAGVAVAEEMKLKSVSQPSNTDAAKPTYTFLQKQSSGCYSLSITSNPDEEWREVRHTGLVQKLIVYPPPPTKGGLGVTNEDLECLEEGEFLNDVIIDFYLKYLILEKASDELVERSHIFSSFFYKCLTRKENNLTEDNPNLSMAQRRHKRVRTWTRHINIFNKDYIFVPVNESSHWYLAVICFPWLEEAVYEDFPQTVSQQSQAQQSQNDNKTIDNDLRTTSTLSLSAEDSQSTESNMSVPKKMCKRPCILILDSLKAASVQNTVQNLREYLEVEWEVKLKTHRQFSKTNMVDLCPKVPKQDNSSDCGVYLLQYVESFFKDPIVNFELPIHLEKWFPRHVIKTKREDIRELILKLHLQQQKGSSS

Caspase-3 = biological target: T2, Caspase-3 (Homo sapiens, UniProt P42574);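 further: Dose-response selectivity test against caspase-3 for candidate inhibitors of sentrin-specific proteases (SENPs)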
T2 sequence (P42574 whole entry): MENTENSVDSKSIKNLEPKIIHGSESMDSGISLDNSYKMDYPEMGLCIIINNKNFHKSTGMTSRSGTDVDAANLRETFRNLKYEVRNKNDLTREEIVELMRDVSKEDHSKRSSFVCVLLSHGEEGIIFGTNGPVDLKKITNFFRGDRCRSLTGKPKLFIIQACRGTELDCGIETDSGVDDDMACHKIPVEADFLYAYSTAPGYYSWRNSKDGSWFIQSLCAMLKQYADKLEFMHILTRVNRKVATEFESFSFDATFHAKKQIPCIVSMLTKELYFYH

[2] = biological target: T3, Sentrin-specific protease 6 (Homo sapiens, UniProt Q9GZR1);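 further: Luminescence-based dose-response confirmatory assay of SENP6 inhibition, following up an ultra-high-throughput screen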
T3 sequence (Q9GZR1 whole entry): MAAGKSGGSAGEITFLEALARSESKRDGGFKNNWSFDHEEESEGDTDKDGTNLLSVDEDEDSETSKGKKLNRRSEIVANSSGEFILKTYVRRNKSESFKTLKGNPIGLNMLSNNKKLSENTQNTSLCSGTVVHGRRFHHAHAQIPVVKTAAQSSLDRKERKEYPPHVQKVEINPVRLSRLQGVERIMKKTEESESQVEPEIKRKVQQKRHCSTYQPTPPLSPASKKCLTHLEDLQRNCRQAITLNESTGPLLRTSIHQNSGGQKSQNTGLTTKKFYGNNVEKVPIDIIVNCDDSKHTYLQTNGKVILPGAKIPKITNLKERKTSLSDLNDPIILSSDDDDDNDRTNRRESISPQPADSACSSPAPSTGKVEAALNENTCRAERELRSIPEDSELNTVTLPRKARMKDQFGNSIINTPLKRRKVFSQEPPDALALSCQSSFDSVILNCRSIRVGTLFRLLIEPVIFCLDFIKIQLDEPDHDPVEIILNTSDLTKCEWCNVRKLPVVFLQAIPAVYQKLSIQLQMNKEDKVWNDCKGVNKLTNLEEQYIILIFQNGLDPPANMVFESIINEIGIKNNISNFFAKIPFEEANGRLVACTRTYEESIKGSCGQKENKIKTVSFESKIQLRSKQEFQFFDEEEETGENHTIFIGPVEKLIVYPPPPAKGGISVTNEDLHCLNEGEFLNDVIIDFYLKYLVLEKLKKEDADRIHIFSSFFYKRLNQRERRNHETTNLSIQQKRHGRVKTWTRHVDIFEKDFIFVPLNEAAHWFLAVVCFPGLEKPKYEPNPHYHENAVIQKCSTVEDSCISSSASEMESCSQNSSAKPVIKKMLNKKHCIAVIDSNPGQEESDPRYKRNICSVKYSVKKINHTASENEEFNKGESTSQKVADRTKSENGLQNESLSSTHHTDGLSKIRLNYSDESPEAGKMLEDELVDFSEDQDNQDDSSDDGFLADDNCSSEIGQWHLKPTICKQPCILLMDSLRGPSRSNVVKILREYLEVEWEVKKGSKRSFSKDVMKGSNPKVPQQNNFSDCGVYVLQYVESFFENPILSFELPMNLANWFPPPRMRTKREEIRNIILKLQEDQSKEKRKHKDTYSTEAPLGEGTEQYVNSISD

[3] = biological target: T4, Sentrin-specific protease 8 (Homo sapiens, UniProt Q96LD8);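 further: luminescence read-out of SENP8 inhibition, dose-response confirmation following an ultra-high-throughput screen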
T4 sequence (Q96LD8 whole entry): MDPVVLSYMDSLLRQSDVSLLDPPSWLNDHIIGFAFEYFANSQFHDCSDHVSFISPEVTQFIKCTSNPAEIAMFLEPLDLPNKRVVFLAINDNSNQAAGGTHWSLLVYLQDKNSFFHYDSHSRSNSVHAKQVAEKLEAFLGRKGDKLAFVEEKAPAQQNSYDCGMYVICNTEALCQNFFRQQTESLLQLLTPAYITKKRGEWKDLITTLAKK

Measured: IC50

COc1cc2c(cc1OC)-c1c(OC)c(OC)cc3c1[C@H](C2)N(C)CC3
active: [1] 7.64 µM | Caspase-3 < 1.55 µM | [2] 2.21 µM | [3] 5.13 µM

O=C1C(Cl)=C(N2CCC(C(=O)O)CC2)C(=O)c2ccccc21
active: [1] 29.1 µM | Caspase-3 15.6 µM | [2] 12.6 µM | [3] 20.2 µM
